Here are results for six compounds from paper PMC10186355, “Discovery of 5′-Substituted 5-Fluoro-2′-deoxyuridine Monophosphate Analogs: A Novel Class of Thymidylate Synthase Inhibitors” (ACS Pharmacology & Translational Science, 2023).

Structures are written as SMILES.

In general, IC50 refers to the concentration needed to halve the response being measured.

T1 sequence (P04818 whole entry): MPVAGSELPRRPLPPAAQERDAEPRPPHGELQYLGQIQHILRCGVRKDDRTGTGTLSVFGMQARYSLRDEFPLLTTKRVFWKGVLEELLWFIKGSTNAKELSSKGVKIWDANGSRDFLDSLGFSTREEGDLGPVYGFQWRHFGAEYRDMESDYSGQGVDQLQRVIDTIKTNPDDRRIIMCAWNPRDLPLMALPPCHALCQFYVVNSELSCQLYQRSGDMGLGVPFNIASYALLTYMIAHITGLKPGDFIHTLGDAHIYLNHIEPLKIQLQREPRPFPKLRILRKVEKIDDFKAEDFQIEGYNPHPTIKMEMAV

One series has as its target T1, recombinant human thymidylate synthase (hTS) (Homo sapiens, UniProt P04818).
T1 construct: His tag (N); purchased Abcam ab95378
The series can be described thus: cell-free human thymidylate synthase (hTS) inhibition assay. As to conditions: 0.84 μM hTS, 50 μM dUMP, 250 μM mTHF, DHF formation at 340 nm, room temperature, pH 7.5. The format is biochemical.
Procedure: This assay measures TS-catalyzed conversion of dUMP and mTHF to dTMP and dihydrofolate (DHF), the latter of which uniquely absorbs strongly at 340 nm (Figures S1 and S2). […] Concentration–response curves were constructed by plotting the normalized reaction rates (calculated using data from the first 100 s after reaction initiation) versus log[inhibitor].
The final concentrations of hTS, dUMP, and mTHF in the reaction systems were 0.84 μM, 50 μM, and 250 μM, respectively. The reaction rates were determined by following the change in the optical absorbance at 340 nm, which corresponded to the formation of the coproduct, DHF.
Human Thymidylate Synthase Inhibition Assay
Recombinant human thymidylate synthase (hTS) was purchased from Abcam (ab95378). The protein was
His-tagged (N-terminal) and >95% pure by SDS-PAGE according to the vendor. dUMP (disodium salt)
(F3503), 5,10-methylenetetrahydrofolate (mTHF, calcium salt , folitixorin calcium ) was purchased from
Boc Sciences (B0084-007873), and all were used without further purification. The cell-free functional hTS
assay protocol was modified from literature procedures :
Inhibition assays were performed using a BioTek Synergy Neo2 plate reader equipped with a Xenon flash
lamp and a photodiode array detector. The hTS reaction was conducted at room temperature in a buffer
solution (pH 7.5) containing 50 mM Tris -HCl, 1 mM EDTA, 25 mM MgCl 2, and 5 mM HCHO. The
reaction system (175 μL total volume, 1 cm optical path lengt h) contained 50 μM dUMP (primary
substrate), 250 μM mTHF (co-substrate and enzyme cofactor), 0.84 μM hTS (enzyme), and decreasing
Formation of the co -product, dihydrofolate, was monitored at 340 nm. Reaction rates were
calculated by plotting t he absorbance at 340 nm against the reaction time and performing linear regression
analysis to determ ine the slope. The reaction rates at different inhibitor concentrations were normalized to
the reaction rate determined in the absence of inhibitor (100% enzymatic activity). Concentration-response
curves were constructed by plotting t he resulting mean % enzymatic activity values (from at least three
independent experiments) against log[inhibitor]. IC50 values were then calculated using non -linear
regression (four -parameter logistic equation, see Equation 1 below) in the GraphPad Prism v.9 software.
Equation 1: Y = Ymin + (Ymax – Ymin) / [1 + 10((logIC50 – X) × Hill Slope)]
On to `C[C@@H](OP(=O)(O)O)[C@H]1O[C@@H](n2cc(F)c(=O)[nH]c2=O)C[C@@H]1O` [Compound 1, 5′(R)-CH3 FdUMP], for which the IC50 stood at 1.21 µM.
On the same count and under the same terms, the figure for `C[C@H](OP(=O)(O)O)[C@H]1O[C@@H](n2cc(F)c(=O)[nH]c2=O)C[C@@H]1O` [Compound 2, 5′(S)-CH3 FdUMP] is more than 20 µM; for `CC(C)(OP(=O)(O)O)[C@H]1O[C@@H](n2cc(F)c(=O)[nH]c2=O)C[C@@H]1O` [Compound 3, 5′-gem-(CH3)2 FdUMP] it is more than 20 µM.
As to `O=c1[nH]c(=O)n([C@H]2C[C@H](O)[C@@H]([C@H](OP(=O)(O)O)C(F)(F)F)O2)cc1F` [Compound 4, 5′(S)-CF3 FdUMP], the IC50 came out at 1.24 µM.
Still for that read-out and setting: the figure for `O=c1[nH]c(=O)n([C@H]2C[C@H](O)[C@@H]([C@@H](OP(=O)(O)O)C(F)(F)F)O2)cc1F` [Compound 5, 5′(R)-CF3 FdUMP] is more than 20 µM.

For a further series, the system named is dihydropyrimidine dehydrogenase (DPD).
Test: not given
Details: method as in PMID 9830621, PMID 31756363. As to conditions: cited from earlier work.
On to `O=c1[nH]cc(F)c(=O)[nH]1` [5-FU, 5-Fluorouracil], for which the “catabolic degradation in the liver by DPD” value is reported as “up to 85%”.
